Results from patent US12035716B2, “Treatment for seeds disinfection” (VILMORIN & CIE, priority 2013, dated 2024).
Like-named read-outs stand apart in the source and are kept apart here.

Tests used:
Acidovorax citrulli = conditions: cited from earlier work; for Eradication of seed borne Acidovorax citrulli inoculum: chemical seed treatment of infected seeds (Dutta et al. 2012)
CGMMV = conditions: Tri Sodium Phosphate 10%, negative control 0.13
Description: In this case, cucumber seeds have been obtained from a commercial seed lot, naturally infected by CGMMV in the production field.
The seeds were disinfected by standard method and by vacuum infiltration method. In this case, vacuum is applied at maximal pressure of 975-985 mbar from the beginning. […] The vacuum cycles continue until floating seeds are no longer sinking. The floating seeds are then removed and discarded. This process takes 15-20 minutes.
In this case two chemicals were used.
We also tested the effect of different concentration of Na-Dichloroisocyanurate applied by vacuum infiltration on CGMMV and germination (table II) treatment E is untreated control; treatment F is vacuum infiltration of Na-Dichloroisocyanurate 0.75%; treatment G is vacuum infiltration of Na-Dichloroisocyanurate 1.5% and treatment H is vacuum infiltration of Na-Dich loroisocyanurate 2.0%.
CGMMV was tested by ELISA assay according to method 7-026 of the international rules for seed testing annex to chapter 7: seed health testing methods; International Seed Testing Association, Zurich, Switzerland, 2010.

cucumber seeds = conditions: Tri Sodium Phosphate 10%
Description: The germination test was performed according to Annex to chapter 5, International Rules for Seed Testing, International Seed Testing Association, Zurich, Switzerland, 1996.

[1] = system: Clavibacter michiganensis subsp. michiganensis; test: Disinfection of tomato seeds naturally infected by CMM; ISF detection method; assay type: in vivo; conditions: 1% Ca(ClO)2
From the text: (§1) Tomato seeds have been obtained from commercial seed lot naturally infected by CMM in the production field. Vacuum treatment was done by vacuum infiltration (VI) method using 4 liters of 1% calcium hypochlorite, as described hereafter. The vacuum was applied while seeds were located in a perforated basket above the disinfectant solution in a closed chamber. A vacuum pressure was applied at maximal reachable vacuum pressure of about 975-985 mbar, followed by submerging the seeds into the solution and releasing the vacuum. Vacuum/de-vacuum cycles were repeated 4 times and at the end, all the seeds sunk. The seeds were collected, rinsed for 5 minutes and dried. Soaking treatment was done in the same solution for one hour after VI treatment or without VI treatment.
Clavibacter michiganensis subsp. michiganensis infection results were obtained by using the “method for the detection of Clavibacter michiganensis subsp. michiganensis on tomato seed” according to the International Seed Federation (ISF) Manual of Seed Health Methods, as can be found in the internet site: http://www.worldseed.org/isf/ishi_vegetable.html.

tomato seeds = test: Germination and transplant tests of treated tomato seeds (AOSA, Example 8); assay type: in vivo; conditions: 1% Ca(ClO)2; for UNIF (Uniform Transplants) / UT (Useable Transplants): trays in a greenhouse
From the text: as §1
The germination tests have been done according to the Association of Official Seed Analysts (AOSA) (http://www.aosaseed.com/).

In the case of `CC(=O)OO` [peroxyacetic acid], the “Eradication of seed borne Acidovorax citrulli inoculum” value (“Eradication” for short) (Acidovorax citrulli) is listed as “generally fail to eradicate the bacterium from the infected seeds” and the BFB seedling transmission (Acidovorax citrulli; seed treatment (Walcott 2005)) is listed as “significantly reduce BFB seedling transmission”.

In the case of `O=P([O-])([O-])[O-].[Na+].[Na+].[Na+]` [Tri Sodium Phosphate], the “ELISA assay result (rate of extinction at A405)” value (CGMMV; standard disinfection) is reported as 0.34, the “ELISA assay result (rate of extinction at A405)” value (CGMMV; vacuum infiltration) is reported as 0.19 and the Germination % (cucumber seeds; standard disinfection) is reported as 100%. It also gave a Germination % (cucumber seeds; vacuum infiltration) of 100%.

In the case of `[Ca+2].[O-]Cl.[O-]Cl` [Ca(ClO)2, calcium hypochlorite], the CMM infection results ([1]; 1 hr soak alone) is reported as “Positive”, the CMM infection results ([1]; VI alone) is reported as “Negative” and the CMM infection results ([1]; VI then 1 hr soak) is reported as “Negative”. The “EN (Energy, early germination counts on Day 5)” value (from here on “EN”) (tomato seeds; 1 hr soak alone) was 98, the “OG (Optimum Germination, counted on Day 14)” value (shortened to “OG”) (tomato seeds; 1 hr soak alone) was 98 and the “UNIF (Uniform Transplants)” value (tomato seeds; 1 hr soak alone) was 92. The “UT (Useable Transplants)” value (tomato seeds; 1 hr soak alone) was 95, the “EN” value (tomato seeds; VI alone) was 96 and the “OG” value (tomato seeds; VI alone) was 96. The “UNIF (Uniform Transplants)” value (tomato seeds; VI alone) was 91, the “UT (Useable Transplants)” value (tomato seeds; VI alone) was 94 and the “EN” value (tomato seeds; VI then 1 hr soak) was 99. The “OG” value (tomato seeds; VI then 1 hr soak) was 99, the “UNIF (Uniform Transplants)” value (tomato seeds; VI then 1 hr soak) was 89 and the “UT (Useable Transplants)” value (tomato seeds; VI then 1 hr soak) was 92.

For `OCl` [sodium hypochlorite], the “Eradication” value (Acidovorax citrulli) is given as “generally fail to eradicate the bacterium from the infected seeds” and the BFB seedling transmission (Acidovorax citrulli; seed treatment (Walcott 2005)) is given as “significantly reduce BFB seedling transmission”.

In the case of `Cl` [hydrochloric acid], the “Eradication” value (Acidovorax citrulli) is listed as “generally fail to eradicate the bacterium from the infected seeds” and the BFB seedling transmission (Acidovorax citrulli; in vivo) is listed as “significantly reduce BFB seedling transmission”.
